Results as given in patent US20250161238A1, “NMDAR Antagonists Prevent Ageing and Aging-Associated Conditions and Diseases Through Increasing 20S Proteasome Activity” (priority 2022, published 2025).
“Also recorded” adds a separate entry of the source.

Legend:
[1] = system: mice; assay: Color change and condition of fur of aged mice; type: in vivo; conditions: 22 months of age; 3 mg/Kg/per day with drinking water
Description: Ten mice, one year old, were supplied for the study. The mice were divided into two groups and one added memenatine to their drinking water, while the other group was designated as the control group. Mice were followed until they were 2 years old. Clinical frailty tests were investigated and compared in the two groups of mice at 22 months. The simplest and most easly determined findings of clinical signs of deterioration in aging mice are the evaluation of changes in mouse skin.
The experimental protocols were approved by the Ethics Committee of Ankara University, Faculty of Medicine, Medical Sciences Experimental Research and Application Center (Date: Dec. 11, 2019 and Decision number: 2019-22-189). Adult (12-mounts-old) C57BL/6 mice (5 for each group) were used. The mice were housed at the Experimental Animal Research Laboratory of Ankara University Faculty of Medicine. Food and water were given without restriction. The ambient temperature was kept at 21±2° C., and locomotor activity tests were performed at this temperature. The animals were housed in a room with a 12-hour light/dark cycle. The procedures in the study were performed in accordance with the Ankara University Animal Care Committee according to international guidelines. […] Tests related to locomotor activities of the mice were recorded and available.

[2] = system: mice; assay: Open Field Maze (OFM) tests in aged mice; type: in vivo
Description: Another test showing locomotor activity in mice is Open Field Maze (OFM). The OFM is one of the most widely used platforms which allow the researcher to measure behaviors ranging from overall locomotor activity to anxiety-related emotional behaviors. The first and most important specific parameter to measure in the OFM is total ambulatory distance.
The experimental protocols were approved by the Ethics Committee of Ankara University, Faculty of Medicine, Medical Sciences Experimental Research and Application Center (Date: Dec. 11, 2019 and Decision number: 2019-22-189). Adult (12-mounts-old) C57BL/6 mice (5 for each group) were used. The mice were housed at the Experimental Animal Research Laboratory of Ankara University Faculty of Medicine. Food and water were given without restriction. The ambient temperature was kept at 21±2° C., and locomotor activity tests were performed at this temperature. The animals were housed in a room with a 12-hour light/dark cycle. The procedures in the study were performed in accordance with the Ankara University Animal Care Committee according to international guidelines. Memantine (Sigma-Aldrich) was administered orally at 3 mg/Kg/per day with drinking water of one-year-old mice. Tests related to locomotor activities of the mice were recorded and available.
Open Field Test described firstly Hall for “emotionality” (Hall, 1934). Open Field test is used for anxiety-like behavior (ALB) and locomotor activity. We conducted the test in a hypethral box, which was made of 62×68 cm blueboard. The base of the box was divided into 20 equal rectangles. Animals had placed in the central region of Open Field Test. The first 5 min of the record was used for the analysis of behavioral parameters such as total distance traveled (horizontal locomotor activity), total rearing number (vertical locomotor activity), central zone time (ALB), Central zone Latency (the time of first return to the central region: ALB), central zone entrance (ALB), unsupported rearing (vertical locomotor activity without touch test wall and exploratory behavior, sensitive for ALB), central escape latency (first escape time from central zone: ALB) (Çalιşkan et al, 2019, Çalιşkan et al, 2020).

[3] = system: mice with GD symptoms; conditions: inverted screen / hanging wire test; cited from earlier work
[4] = biological target: T1, acid beta-glucosidase (GCase) (Mus musculus, UniProt P17439); conditions: in vivo; cited from earlier work
T1 construct: host or cells: mice (in vivo), US 2017/0273917 A1 and Klein et al. 2016
T1 sequence (P17439 20-515): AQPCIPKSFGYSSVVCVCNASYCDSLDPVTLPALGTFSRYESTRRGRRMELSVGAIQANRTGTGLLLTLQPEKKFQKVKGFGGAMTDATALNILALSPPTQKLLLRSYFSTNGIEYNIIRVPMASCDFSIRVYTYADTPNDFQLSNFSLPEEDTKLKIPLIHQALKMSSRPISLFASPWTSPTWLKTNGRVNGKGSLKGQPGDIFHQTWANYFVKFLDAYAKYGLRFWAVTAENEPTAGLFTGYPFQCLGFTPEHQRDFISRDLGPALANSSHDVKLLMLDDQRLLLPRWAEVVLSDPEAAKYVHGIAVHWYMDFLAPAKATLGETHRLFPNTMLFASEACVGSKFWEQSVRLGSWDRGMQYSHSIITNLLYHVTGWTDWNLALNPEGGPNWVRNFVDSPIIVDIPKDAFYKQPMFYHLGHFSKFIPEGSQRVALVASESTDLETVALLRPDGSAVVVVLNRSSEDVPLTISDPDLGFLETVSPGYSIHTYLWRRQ

[5] = system: p21-GFP fusion protein; assay: p21-GFP fusion protein amount in cells; type: cell-based, human; conditions: Hep3B expressing p21-GFP

For CC12CC3CC(C)(C1)CC(N)(C3)C2 [memantine, 3,5-dimethyladamantan-1-amine], the “color change and condition of mouse fur” value [1] was “very different in favor of those who received memantine”, the Central zone time ([2]; 5-minute movements) was 4 times and the Central latency time ([2]; P 0.07) was “differed at least twice”. For the same compound, the Central zone entrance ([2]; P 0.08) was “differed at least twice”, the Central escape latency ([2]; P 0.4) was “differed at least twice” and the total ambulatory distance ([2]; five minute recordings) was “nearly two times more”. The Peripheral zone time ([2]; mouse, in vivo) was “mice not receiving memantine remained in the peripheral regions more”, the total rearing activity ([2]; mouse, in vivo) was “twice as much rearing activity” and the “muscle strength / motor coordination of GD mice” value [3] was “much better; also recorded: improved significantly; also recorded: increase the muscle strength”. The “Gcase inhibition and level of Gcase substrates GlcCer and GSLs” value [4] was “no effect”.

In the case of CNC1(c2ccccc2Cl)CCCCC1=O (centres unmarked) [ketamin, 2-(2-chlorophenyl)-2-(methylamino)-cyclohexanone], the “p21-GFP fusion protein / GFP amount” value [5] is reported as “decrease”.
